Reference: ChEMBL document CHEMBL3792297, “Studies on phenothiazines: New microtubule-interacting compounds with phenothiazine A-ring as potent antineoplastic agents” (Bioorg Med Chem, 2016)

Columns and labels:
Type in all cases: functional
[1] = Growth inhibition of human SF539 cells after 48 hrs by SRB assay; conditions: SF-539, 48 h
[2] = Growth inhibition of human SF539 cells at 10 uM after 48 hrs by SRB assay relative to control; conditions: SF-539, 48 h, read-out: GI
NCI-H460 [3] = assay: Growth inhibition of human NCI-H460 cells after 48 hrs by SRB assay; conditions: NCI-H460, 48 h
[4] = Growth inhibition of human PC3 cells at 10 uM after 48 hrs by SRB assay relative to control; conditions: PC-3, 48 h, read-out: GI
[5] = Growth inhibition of human OVCAR4 cells after 48 hrs by SRB assay; conditions: OVCAR-4, 48 h
HT-29 [6] = assay: Growth inhibition of human HT-29 cells after 48 hrs by SRB assay; conditions: HT-29, 48 h
786-0 = assay: Growth inhibition of human 786-0 cells at 10 uM after 48 hrs by SRB assay relative to control; conditions: 786-0, 48 h, read-out: GI
[7] = Growth inhibition of human HOP62 cells at 10 uM after 48 hrs by SRB assay relative to control; conditions: HOP-62, 48 h, read-out: GI
MDA-MB-435 [8] = assay: Growth inhibition of human MDA-MB-435 cells at 10 uM after 48 hrs by SRB assay relative to control; conditions: MDA-MB-435, 48 h, read-out: GI
SR = assay: Growth inhibition of human SR cells at 10 uM after 48 hrs by SRB assay relative to control; conditions: read-out: GI
[9] = Growth inhibition of human COLO205 cells after 48 hrs by SRB assay; conditions: COLO 205, 48 h
[10] = Growth inhibition of human DU145 cells after 48 hrs by SRB assay; conditions: DU-145, 48 h
EKVX = assay: Growth inhibition of human EKVX cells at 10 uM after 48 hrs by SRB assay relative to control; conditions: read-out: GI
HT-29 [11] = assay: Growth inhibition of human HT-29 cells at 10 uM after 48 hrs by SRB assay relative to control; conditions: HT-29, 48 h, read-out: GI
[12] = Growth inhibition of human SKOV3 cells at 10 uM after 48 hrs by SRB assay relative to control; conditions: SK-OV-3, 48 h, read-out: GI
KM12 = assay: Growth inhibition of human KM12 cells after 48 hrs by SRB assay; conditions: KM12, 48 h
[13] = Growth inhibition of human HCT15 cells after 48 hrs by SRB assay; conditions: HCT-15, 48 h
MDA-MB-468 [14] = assay: Growth inhibition of human MDA-MB-468 cells after 48 hrs by SRB assay; conditions: MDA-MB-468, 48 h
[15] = Growth inhibition of human HCC2998 cells after 48 hrs by SRB assay; conditions: HCC 2998, 48 h
NCI-H322M = assay: Growth inhibition of human NCI-H322M cells at 10 uM after 48 hrs by SRB assay relative to control; conditions: read-out: GI
CCRF-CEM [16] = assay: Growth inhibition of human CCRF-CEM cells after 48 hrs by SRB assay
MDA-MB-468 [17] = assay: Growth inhibition of human MDA-MB-468 cells at 10 uM after 48 hrs by SRB assay relative to control; conditions: MDA-MB-468, 48 h, read-out: GI
[18] = Growth inhibition of human BT549 cells after 48 hrs by SRB assay; conditions: BT-549, 48 h
[19] = Growth inhibition of human SKOV3 cells after 48 hrs by SRB assay; conditions: SK-OV-3, 48 h
[20] = Growth inhibition of human SNB75 cells after 48 hrs by SRB assay; conditions: SNB-75, 48 h
NCI-H226 = assay: Growth inhibition of human NCI-H226 cells at 10 uM after 48 hrs by SRB assay relative to control; conditions: NCI-H226, 48 h, read-out: GI
MDA-MB-435 [21] = assay: Growth inhibition of human MDA-MB-435 cells after 48 hrs by SRB assay; conditions: MDA-MB-435, 48 h
SK-MEL-28 = assay: Growth inhibition of human SK-MEL-28 cells at 10 uM after 48 hrs by SRB assay relative to control; conditions: SK-MEL-28, 48 h, read-out: GI
SN12C = assay: Growth inhibition of human SN12C cells after 48 hrs by SRB assay
[22] = Growth inhibition of human HL-60(TB) cells after 48 hrs by SRB assay; conditions: HL-60, 48 h
[23] = Growth inhibition of human OVCAR3 cells after 48 hrs by SRB assay; conditions: OVCAR-3, 48 h
[24] = Growth inhibition of human SF268 cells after 48 hrs by SRB assay; conditions: SF-268, 48 h
CCRF-CEM [25] = assay: Growth inhibition of human CCRF-CEM cells at 10 uM after 48 hrs by SRB assay relative to control; conditions: read-out: GI
NCI-H23 = assay: Growth inhibition of human NCI-H23 cells after 48 hrs by SRB assay; conditions: NCI-H23, 48 h
NCI-H460 [26] = assay: Growth inhibition of human NCI-H460 cells at 10 uM after 48 hrs by SRB assay relative to control; conditions: NCI-H460, 48 h, read-out: GI
[27] = Growth inhibition of human OVCAR3 cells at 10 uM after 48 hrs by SRB assay relative to control; conditions: OVCAR-3, 48 h, read-out: GI
NCI-H522 = assay: Growth inhibition of human NCI-H522 cells at 10 uM after 48 hrs by SRB assay relative to control; conditions: NCI-H522, 48 h, read-out: GI
[28] = Growth inhibition of human LOXIMVI cells at 10 uM after 48 hrs by SRB assay relative to control; conditions: LOX IMVI, read-out: GI
ACHN = assay: Growth inhibition of human ACHN cells after 48 hrs by SRB assay
[29] = Growth inhibition of human OVCAR8 cells at 10 uM after 48 hrs by SRB assay relative to control; conditions: OVCAR-8, 48 h, read-out: GI
[30] = Growth inhibition of human Hs 578T cells after 48 hrs by SRB assay
[31] = Growth inhibition of human RXF393 cells after 48 hrs by SRB assay; conditions: RXF 393, 48 h
SK-MEL-5 = assay: Growth inhibition of human SK-MEL-5 cells at 10 uM after 48 hrs by SRB assay relative to control; conditions: SK-MEL-5, 48 h, read-out: GI
[32] = Growth inhibition of human UO31 cells at 10 uM after 48 hrs by SRB assay relative to control; conditions: UO-31, 48 h, read-out: GI
K562 = assay: Growth inhibition of human K562 cells after 48 hrs by SRB assay; conditions: K562, 48 h
U-251 = assay: Growth inhibition of human U251 cells after 48 hrs by SRB assay; conditions: U-251, 48 h

## COc1ccc(C(=O)N2c3ccccc3Sc3ccccc32)c(C(F)(F)F)c1
[1]
  GI50: 270 nM
[2]
  inhibition of growth at 10 µM: 100%
NCI-H460 [3]
  GI50: 383 nM
[4]
  inhibition of growth at 10 µM: 85%
[5]
  GI50: 1980 nM
HT-29 [6]
  GI50: 362 nM
786-0
  inhibition of growth at 10 µM: 61%
[7]
  inhibition of growth at 10 µM: 57%
MDA-MB-435 [8]
  inhibition of growth at 10 µM: 100%
SR
  inhibition of growth at 10 µM: 84%
[9]
  GI50: 319 nM
[10]
  GI50: 433 nM
EKVX
  inhibition of growth at 10 µM: 54%
HT-29 [11]
  inhibition of growth at 10 µM: 97%
[12]
  inhibition of growth at 10 µM: 66%
KM12
  GI50: 413 nM
[13]
  GI50: 405 nM
MDA-MB-468 [14]
  GI50: 364 nM
[15]
  GI50: 467 nM
NCI-H322M
  inhibition of growth at 10 µM: 47%
CCRF-CEM [16]
  GI50: 88 nM
MDA-MB-468 [17]
  inhibition of growth at 10 µM: 70%
[18]
  GI50: 892 nM
[19]
  GI50: 794 nM
[20]
  GI50: 264 nM
NCI-H226
  inhibition of growth at 10 µM: 87%
MDA-MB-435 [21]
  GI50: 176 nM
SK-MEL-28
  inhibition of growth at 10 µM: 48%
SN12C
  GI50: 1300 nM
[22]
  GI50: 252 nM
[23]
  GI50: 332 nM
[24]
  GI50: 3040 nM
CCRF-CEM [25]
  inhibition of growth at 10 µM: 78%
NCI-H23
  GI50: 578 nM
NCI-H460 [26]
  inhibition of growth at 10 µM: 90%
[27]
  inhibition of growth at 10 µM: 100%
NCI-H522
  inhibition of growth at 10 µM: 98%
[28]
  inhibition of growth at 10 µM: 83%
ACHN
  GI50: 1330 nM
[29]
  inhibition of growth at 10 µM: 85%
[30]
  GI50: 472 nM
[31]
  GI50: 362 nM
SK-MEL-5
  inhibition of growth at 10 µM: 95%
[32]
  inhibition of growth at 10 µM: 60%
K562
  GI50: 349 nM
U-251
  GI50: 500 nM

## COc1ccc(C(=O)N2c3ccccc3Sc3ccccc32)c(F)c1
[1]
  GI50: 409 nM
[2]
  inhibition of growth at 10 µM: 100%
NCI-H460 [3]
  GI50: 485 nM
[4]
  inhibition of growth at 10 µM: 70%
[5]
  GI50: 2010 nM
HT-29 [6]
  GI50: 380 nM
786-0
  inhibition of growth at 10 µM: 77%
[7]
  inhibition of growth at 10 µM: 63%
MDA-MB-435 [8]
  inhibition of growth at 10 µM: 100%
SR
  inhibition of growth at 10 µM: 77%
[9]
  GI50: 445 nM
[10]
  GI50: 1400 nM
EKVX
  inhibition of growth at 10 µM: 56%
HT-29 [11]
  inhibition of growth at 10 µM: 95%
[12]
  inhibition of growth at 10 µM: 62%
KM12
  GI50: 489 nM
[13]
  GI50: 419 nM
MDA-MB-468 [14]
  GI50: 413 nM
[15]
  GI50: 2380 nM
NCI-H322M
  inhibition of growth at 10 µM: 56%
CCRF-CEM [16]
  GI50: 522 nM
MDA-MB-468 [17]
  inhibition of growth at 10 µM: 100%
[18]
  GI50: 676 nM
[19]
  GI50: 4130 nM
[20]
  GI50: 288 nM
NCI-H226
  inhibition of growth at 10 µM: 54%
MDA-MB-435 [21]
  GI50: 177 nM
SK-MEL-28
  inhibition of growth at 10 µM: 41%
SN12C
  GI50: 1940 nM
[22]
  GI50: 325 nM
[23]
  GI50: 418 nM
[24]
  GI50: 10100 nM
CCRF-CEM [25]
  inhibition of growth at 10 µM: 83%
NCI-H23
  GI50: 3420 nM
NCI-H460 [26]
  inhibition of growth at 10 µM: 88%
[27]
  inhibition of growth at 10 µM: 100%
NCI-H522
  inhibition of growth at 10 µM: 99%
[28]
  inhibition of growth at 10 µM: 60%
ACHN
  GI50: 831 nM
[29]
  inhibition of growth at 10 µM: 68%
[30]
  GI50: 377 nM
[31]
  GI50: 764 nM
SK-MEL-5
  inhibition of growth at 10 µM: 84%
[32]
  inhibition of growth at 10 µM: 51%
K562
  GI50: 442 nM
U-251
  GI50: 615 nM

## COc1ccc(C(=O)N2c3ccccc3Sc3ccccc32)c(OC)c1
[1]
  GI50: 333 nM
[2]
  inhibition of growth at 10 µM: 100%
NCI-H460 [3]
  GI50: 406 nM
[4]
  inhibition of growth at 10 µM: 89%
[5]
  GI50: 3170 nM
HT-29 [6]
  GI50: 385 nM
786-0
  inhibition of growth at 10 µM: 71%
[7]
  inhibition of growth at 10 µM: 52%
MDA-MB-435 [8]
  inhibition of growth at 10 µM: 100%
SR
  inhibition of growth at 10 µM: 78%
[9]
  GI50: 333 nM
[10]
  GI50: 491 nM
EKVX
  inhibition of growth at 10 µM: 66%
HT-29 [11]
  inhibition of growth at 10 µM: 100%
[12]
  inhibition of growth at 10 µM: 63%
KM12
  GI50: 438 nM
[13]
  GI50: 464 nM
MDA-MB-468 [14]
  GI50: 327 nM
[15]
  GI50: 1490 nM
NCI-H322M
  inhibition of growth at 10 µM: 38%
CCRF-CEM [16]
  GI50: 394 nM
MDA-MB-468 [17]
  inhibition of growth at 10 µM: 100%
[18]
  GI50: 659 nM
[19]
  GI50: 715 nM
[20]
  GI50: 209 nM
NCI-H226
  inhibition of growth at 10 µM: 69%
MDA-MB-435 [21]
  GI50: 212 nM
SK-MEL-28
  inhibition of growth at 10 µM: 42%
SN12C
  GI50: 586 nM
[22]
  GI50: 297 nM
[23]
  GI50: 322 nM
[24]
  GI50: 853 nM
CCRF-CEM [25]
  inhibition of growth at 10 µM: 83%
NCI-H23
  GI50: 776 nM
NCI-H460 [26]
  inhibition of growth at 10 µM: 90%
[27]
  inhibition of growth at 10 µM: 100%
NCI-H522
  inhibition of growth at 10 µM: 100%
[28]
  inhibition of growth at 10 µM: 62%
ACHN
  GI50: 726 nM
[29]
  inhibition of growth at 10 µM: 72%
[30]
  GI50: 482 nM
[31]
  GI50: 413 nM
SK-MEL-5
  inhibition of growth at 10 µM: 81%
[32]
  inhibition of growth at 10 µM: 52%
K562
  GI50: 381 nM
U-251
  GI50: 615 nM
